Target: T1, maize enzyme cytokinin oxidase/dehydrogenase 1 (ZmCKX1) (Zea mays, UniProt Q9T0N8)
T1 construct: made in house; host or cells: Yarrowia lipolytica
Test: ZmCKX1 inhibition, PMS/MTT assay
Type: biochemical
Details: not given
Description: The IC50 (concentration of a substance that causes 50% inhibition of the enzyme activity) was measured by PMS/MTT assay [phenazine methosulphate/3-(4,5-dimethylthiazol-2-yl)-2,5-diphenyltetrazolium bromide]. The assay was performed in 96-well microtiter plates. Each well contained a reaction mixture with a final concentration of: 0.1 M KH2PO4, pH 7.4, 1 mM MTT, 0.2 mM PMS, tested substance in a concentration range of 0.1 nM - 1 µM and 10 µM N^6-isopentenyladenine (iP) as a substrate. To this reaction mixture 100 µL of medium containing the active enzyme ZmCKX1 was added. The enzyme was produced by the yeast Yarrowia lipolytica and isolated according to the protocol (Kopečný D. et al., 2005, […] 87:1011-1022). The plates were incubated for 30 min at 37 °C and the enzymatic reaction was stopped by the addition of 25 µL of 35% acetic acid. Then, the absorbance at 578 nm was measured on a spectrophotometer, and the absorbance of the sample without the substrate was substracted as a reference value. The IC50 value was determined from the concentration-dependent curves in GraphPad Prism software. The values shown in Table 1 are the average of at least two measurements each performed in three repetitions. […] This also applies to 3,5-DCl-Ph-U derivatives.

T1 sequence (Q9T0N8 19-534): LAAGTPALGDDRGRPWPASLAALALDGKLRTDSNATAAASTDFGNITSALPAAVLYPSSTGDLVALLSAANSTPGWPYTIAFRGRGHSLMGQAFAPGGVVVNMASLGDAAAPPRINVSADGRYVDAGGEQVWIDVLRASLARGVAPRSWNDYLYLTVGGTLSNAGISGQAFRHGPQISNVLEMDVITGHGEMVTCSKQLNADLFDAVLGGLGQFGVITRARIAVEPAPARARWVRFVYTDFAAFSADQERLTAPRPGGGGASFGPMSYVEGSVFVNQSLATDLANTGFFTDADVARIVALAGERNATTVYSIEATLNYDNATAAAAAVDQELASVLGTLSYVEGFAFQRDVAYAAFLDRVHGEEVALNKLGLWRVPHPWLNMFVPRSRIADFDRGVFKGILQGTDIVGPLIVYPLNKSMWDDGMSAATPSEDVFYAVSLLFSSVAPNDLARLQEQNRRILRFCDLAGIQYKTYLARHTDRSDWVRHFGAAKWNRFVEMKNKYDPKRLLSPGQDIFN

SMILES	IC50
COc1cc(Br)cc(NC(=O)Nc2ccccc2CCO)c1 [Compound 56, 1-(3-bromo-5-methoxyphenyl)-3-[2-(2-hydroxyethyl)phenyl]urea]	0.14 µM
O=C(Nc1cc(F)cc(Br)c1)Nc1ccccc1CCO [Compound 47, 1-(3-bromo-5-fluorophenyl)-3-[2-(2-hydroxyethyl)phenyl]urea]	0.17 µM

Same assay, conditions: 10 µM N6-isopentenyladenine (iP) as substrate, pH 7.4, 30 min at 37 °C; average of at least two measurements; read-out: IC50 (µM) ZmCKX1

SMILES	IC50
O=C(Nc1cc(Cl)cc(Cl)c1)Nc1cc(Cl)cc(Cl)c1CCO [Compound 49, 1-[3,5-Dichloro-2-(2-hydroxyethyl)phenyl]-3-(3,5-dichlorophenyl)urea]	0.01 µM
COc1cc(NCCO)cc(NC(=O)Nc2ccccc2CO)c1 [Compound 23, 1-[3-(2-hydroxyethylamino)-5-methoxyphenyl]-3-(2-hydroxymethylphenyl)urea]	0.2 µM
O=C(Nc1cccc(OC(F)(F)F)c1)Nc1cc(Cl)cc(Cl)c1CO [Compound 36, 1-(3,5-dichloro-2-hydroxymethylphenyl)-3-(3-trifluoromethoxyphenyl)urea]	0.032 µM
O=C(Nc1cc(F)cc(F)c1)Nc1ccccc1CO [Compound 17, 1-(3,5-difluorophenyl)-3-(2-hydroxymethylphenyl)urea]	0.65 µM
O=C(Nc1ccnc(Cl)c1)Nc1ccccc1CCO [Compound 12, 1-(2-Chloropyridin-4-yl)-3-[2-(2-hydroxyethyl)phenyl]urea]	1.3 µM
O=C(Nc1cccc(OC(F)(F)F)c1)Nc1ccccc1CO [Compound 28, 1-(2-Hydroxymethylphenyl)-3-(3-trifluoromethoxyphenyl)urea]	1.3 µM
O=C(Nc1cccc(OC(F)(F)F)c1)Nc1cc(F)cc(F)c1CO [Compound 35, 1-(3,5-Difluoro-2-hydroxymethylphenyl)-3-(3-trifluoromethoxyphenyl)urea]	0.085 µM
O=C(Nc1cccc(SC(F)(F)F)c1)Nc1ccccc1CO [Compound 41, 1-(2-hydroxymethylphenyl)-3-(3-trifluoromethylsulphanylphenyl)urea]	0.14 µM
O=C(Nc1ccnc(F)c1)Nc1ccccc1CO [Compound 1, 1-(2-fluoropyridin-4-yl)-3-(2-hydroxymethylphenyl)urea]	2.5 µM
NCCNc1cc(NC(=O)Nc2ccccc2CCO)cc(OC(F)(F)F)c1 [Compound 67]	0.022 µM
O=C(Nc1cc(NCCO)cc(OC(F)(F)F)c1)Nc1ccccc1CO [Compound 38, 1-[3-(2-hydroxyethylamino)-5-trifluoromethoxyphenyl]-3-(2-hydroxymethylphenyl)urea]	0.1 µM
COc1cccc(NC(=O)Nc2ccccc2CCO)c1 [Compound 50, 1-[2-(2-hydroxyethyl)phenyl]-3-(3-methoxyphenyl)urea]	0.27 µM
O=C(Nc1cccc(SC(F)(F)F)c1)Nc1cc(Cl)ccc1CO [Compound 43, 1-(5-chloro-2-hydroxymethylphenyl)-3-(3-trifluoromethylsulphanylphenyl)urea]	0.02 µM
O=C(Nc1cc(Cl)cc(Cl)c1)Nc1cc(Cl)cc(Cl)c1CO [Compound 21, 1-(3,5-Dichloro-2-hydroxymethylphenyl)-3-(3,5-dichlorophenyl)urea]	0.02 µM
O=C(Nc1cc(Cl)cc(Cl)c1)Nc1ccccc1CO [Compound 18, 1-(3,5-Dichlorophenyl)-3-(2-hydroxymethylphenyl)urea]	0.4 µM
O=C(Nc1cccc(OC(F)(F)F)c1)Nc1cccc(Br)c1CO [Compound 31, 1-(3-bromo-2-hydroxymethylphenyl)-3-(3-trifluoro-methoxyphenyl)urea]	0.37 µM
O=C(Nc1cccc(OC(F)(F)F)c1)Nc1cccc(Cl)c1CO [Compound 30, 1-(3-Chloro-2-hydroxymethylphenyl)-3-(3-trifluoromethoxyphenyl)urea]	0.3 µM
CSc1cccc(NC(=O)Nc2ccccc2CO)c1 [Compound 26, 1-(2-hydroxymethylphenyl)-3-(3-methylsulphanylphenyl)urea]	1.5 µM
O=C(Nc1cc(Cl)cc(Cl)c1)Nc1cccc(Cl)c1CO [Compound 20, 1-(3-Chloro-2-hydroxymethylphenyl)-3-(3,5-dichlorophenyl)urea]	0.27 µM
O=C(Nc1cc(Cl)nc(Cl)c1)Nc1ccccc1CO [Compound 5, 1-(2,6-dichloropyridin-4-yl)-3-(2-hydroxymethylphenyl)urea]	0.7 µM
COc1cc(NCCN)cc(NC(=O)Nc2ccccc2CCO)c1 [Compound 58]	0.13 µM
O=C(Nc1cccc(OC(F)(F)F)c1)Nc1cc(Br)cc(Br)c1CO [Compound 37, 1-(3,5-dibromo-2-hydroxymethylphenyl)-3-(3-trifluoromethoxyphenyl)urea]	0.051 µM
O=C(Nc1ccnc(Cl)c1)Nc1ccccc1CO [Compound 4, 1-(2-chloropyridin-4-yl)-3-(2-hydroxymethylphenyl)urea]	1.6 µM
O=C(Nc1cccc(OC(F)(F)F)c1)Nc1cccc(F)c1CO [Compound 29, 1-(3-fluoro-2-hydroxymethylphenyl)-3-(3-trifluoromethoxyphenyl)urea]	0.36 µM

The remaining lines, values ahead:

IC50	SMILES
0.28 µM	COc1cc(F)cc(NC(=O)Nc2ccccc2CCO)c1 [Compound 54, 1-(3-fluoro-5-methoxyphenyl)-3-[2-(2-hydroxyethyl)phenyl]urea]
0.18 µM	O=C(Nc1cc(Cl)cc(Cl)c1)Nc1ccccc1CCO [Compound 45, 1-(3,5-Dichlorophenyl)-3-[2-(2-hydroxyethyl)phenyl]urea]
0.036 µM	O=C(Nc1cccc(OC(F)(F)F)c1)Nc1cc(F)ccc1CCO [Compound 63, 1-[5-fluoro-2-(2-hydroxyethyl)phenyl]-3-(3-trifluoromethoxyphenyl)urea]
0.14 µM	O=C(Nc1cc(Br)cc(Br)c1)Nc1ccccc1CCO [Compound 46, 1-(3,5-dibromophenyl)-3-[2-(2-hydroxyethyl)phenyl]urea]
0.18 µM	COc1cc(Cl)cc(NC(=O)Nc2ccccc2CCO)c1 [Compound 55, 1-(3-Chloro-5-methoxyphenyl)-3-[2-(2-hydroxyethyl)phenyl]urea]
0.15 µM	COc1cc(NC(=O)Nc2cc(F)ccc2CCO)ccn1 [Compound 15, 1-[5-fluoro-2-(2-hydroxyethyl)phenyl]-3-(2-methoxypyridin-4-yl)urea]
1.6 µM	O=C(Nc1ccnc(F)c1)Nc1ccccc1CCO [Compound 9, 1-(2-fluoropyridin-4-yl)-3-[2-(2-hydroxyethyl)phenyl]urea]
0.21 µM	O=C(Nc1cc(F)cc(Cl)c1)Nc1ccccc1CCO [Compound 48, 1-(3-chloro-5-fluorophenyl)-3-[2-(2-hydroxyethyl)phenyl]urea]
0.056 µM	O=C(Nc1cc(Cl)nc(Cl)c1)Nc1cc(F)ccc1CCO [Compound 14, 1-[5-fluoro-2-(2-hydroxyethyl)phenyl]-3-(2,6-dichloropyridin-4-yl)urea]
0.72 µM	O=C(Nc1cc(F)nc(F)c1)Nc1ccccc1CCO [Compound 10, 1-(2,6-difluoropyridin-4-yl)-3-[2-(2-hydroxyethyl)phenyl]urea]
0.43 µM	O=C(Nc1cc(Cl)nc(Cl)c1)Nc1ccccc1CCO [Compound 13, 1-(2,6-Dichloropyridin-4-yl)-3-[2-(2-hydroxyethyl)phenyl]urea]
0.36 µM	O=C(Nc1cc(F)cc(F)c1)Nc1ccccc1CCO [Compound 44, 1-(3,5-difluorophenyl)-3-[2-(2-hydroxyethyl)phenyl]urea]
